Measurements: PubChem BioAssay AID2060895 (Molecular Pharmacology Branch, DTP, NCI, 2025)
pIC50: −log10 of the molar value.

Test system: PDC 899932-113-R3-J6 complex spheroid viability
Assay: Anticancer human tumor 899932-113-R3-J6-PDC patient-derived melanoma cell line growth inhibition [RAS]
Conditions: for pIC50: curve of first compound; for viability, T/C: stronger effect = lower value; active = viability on the fitted dose curve at most 10% of control; inactive = the rest
Method in brief: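 Multi-cell-type spheroids: tumor cells plus HUVEC endothelial cells and mesenchymal stem cells. RAS-pathway inhibitors were combined with targeted agents, each dosed in half-log steps down from clinical Cmax, or from 10 microM when Cmax was unknown.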

[1] = second compound 0.000949 µM, first compound 0.00316 µM
[2] = second compound 0.000949 µM, first compound 0.01 µM
[3] = second compound 0.000949 µM, first compound 0.0316 µM
[4] = second compound 0.000949 µM, first compound 0.1 µM
[5] = second compound 0.000949 µM, first compound 0.316 µM
[6] = second compound 0.000949 µM, first compound 1 µM
[7] = second compound 0.003 µM, first compound 0.00316 µM
[8] = second compound 0.003 µM, first compound 0.01 µM
[9] = second compound 0.003 µM, first compound 0.0316 µM
[10] = second compound 0.003 µM, first compound 0.1 µM
[11] = second compound 0.003 µM, first compound 0.316 µM
[12] = second compound 0.003 µM, first compound 1 µM
[13] = second compound 0.00949 µM, first compound 0.00316 µM
[14] = second compound 0.00949 µM, first compound 0.01 µM
[15] = second compound 0.00949 µM, first compound 0.0316 µM
[16] = second compound 0.00949 µM, first compound 0.1 µM
[17] = second compound 0.00949 µM, first compound 0.316 µM
[18] = second compound 0.00949 µM, first compound 1 µM
[19] = second compound 0.03 µM, first compound 0.00316 µM
[20] = second compound 0.03 µM, first compound 0.01 µM
[21] = second compound 0.03 µM, first compound 0.0316 µM
[22] = second compound 0.03 µM, first compound 0.1 µM
[23] = second compound 0.03 µM, first compound 0.316 µM
[24] = second compound 0.03 µM, first compound 1 µM
[25] = second compound 0.0949 µM, first compound 0.00316 µM
[26] = second compound 0.0949 µM, first compound 0.01 µM
[27] = second compound 0.0949 µM, first compound 0.0316 µM
[28] = second compound 0.0949 µM, first compound 0.1 µM
[29] = second compound 0.0949 µM, first compound 0.316 µM
[30] = second compound 0.0949 µM, first compound 1 µM
[31] = second compound 0.3 µM, first compound 0.00316 µM
[32] = second compound 0.3 µM, first compound 0.01 µM
[33] = second compound 0.3 µM, first compound 0.0316 µM
[34] = second compound 0.3 µM, first compound 0.1 µM
[35] = second compound 0.3 µM, first compound 0.316 µM
[36] = second compound 0.3 µM, first compound 1 µM
[37] = second compound 0.000949 µM, first compound 3.16 µM
[38] = second compound 0.000949 µM, first compound 10 µM
[39] = second compound 0.003 µM, first compound 3.16 µM
[40] = second compound 0.003 µM, first compound 10 µM
[41] = second compound 0.00949 µM, first compound 3.16 µM
[42] = second compound 0.00949 µM, first compound 10 µM
[43] = second compound 0.03 µM, first compound 3.16 µM
[44] = second compound 0.03 µM, first compound 10 µM
[45] = second compound 0.0949 µM, first compound 3.16 µM
[46] = second compound 0.0949 µM, first compound 10 µM
[47] = second compound 0.3 µM, first compound 3.16 µM
[48] = second compound 0.3 µM, first compound 10 µM
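For viability, T/C in this document: spheroids exposed to agents for seven days before readout; 100% = DMSO vehicle control wells.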

C=CC(=O)Nc1cc(Nc2nccc(-c3cn(C)c4ccccc34)n2)c(OC)cc1N(C)CCN(C)C + CCn1c(-c2cc(N3CCN(C)CC3)cnc2C(C)OC)c2c3cc(ccc31)-c1csc(n1)CC(NC(=O)C1CC1C)C(=O)N1CCCC(N1)C(=O)OCC(C)(C)C2
> 8.50: pIC50 (second compound 0.003 µM) | pIC50 (second compound 0.00949 µM) | pIC50 (second compound 0.03 µM) | pIC50 (second compound 0.0949 µM) | pIC50 (second compound 0.3 µM)
< 6.00: pIC50 (second compound 0.000949 µM)
active: viability, T/C [13] 4.3% | viability, T/C [14] 3.34% | viability, T/C [15] 3.46% | viability, T/C [16] 3.41% | viability, T/C [17] 2.9% | viability, T/C [18] 2.5% | viability, T/C [19] 2.61% | viability, T/C [20] 2.72% | viability, T/C [21] 2.62% | viability, T/C [22] 2.55% | viability, T/C [23] 2.41% | viability, T/C [24] 1.43% | viability, T/C [25] 2.26% | viability, T/C [26] 2.18% | viability, T/C [27] 2.56% | viability, T/C [28] 2.02% | viability, T/C [29] 1.87% | viability, T/C [30] 1.11% | viability, T/C [31] 2.04% | viability, T/C [32] 2.23% | viability, T/C [33] 1.88% | viability, T/C [34] 1.96% | viability, T/C [35] 1.49% | viability, T/C [36] 1.11%
inactive: viability, T/C [1] 69.1% | viability, T/C [2] 69.2% | viability, T/C [3] 67% | viability, T/C [4] 79.7% | viability, T/C [5] 76.7% | viability, T/C [6] 64.3% | viability, T/C [7] 32.5% | viability, T/C [8] 28.4% | viability, T/C [9] 28.7% | viability, T/C [10] 33.8% | viability, T/C [11] 31.5% | viability, T/C [12] 16.9%

CC(C)NCC(C(=O)N1CCN(c2ncnc3c2C(C)CC3O)CC1)c1ccc(Cl)cc1 (stereo not drawn) + CCn1c(-c2cc(N3CCN(C)CC3)cnc2C(C)OC)c2c3cc(ccc31)-c1csc(n1)CC(NC(=O)C1CC1C)C(=O)N1CCCC(N1)C(=O)OCC(C)(C)C2
inactive: viability, T/C [3] 80.5% | viability, T/C [4] 75.4% | viability, T/C [5] 61.7% | viability, T/C [6] 53.7% | viability, T/C [37] 37.1% | viability, T/C [38] 14.6% | viability, T/C [9] 34.5% | viability, T/C [10] 32.8% | viability, T/C [11] 26.5% | viability, T/C [12] 19.6% | viability, T/C [39] 10%
5.93: pIC50 (second compound 0.000949 µM)
> 7.50: pIC50 (second compound 0.003 µM) | pIC50 (second compound 0.00949 µM) | pIC50 (second compound 0.03 µM) | pIC50 (second compound 0.0949 µM) | pIC50 (second compound 0.3 µM)
active: viability, T/C [40] 5.05% | viability, T/C [15] 4.77% | viability, T/C [16] 3.31% | viability, T/C [17] 3.85% | viability, T/C [18] 2.39% | viability, T/C [41] 1.83% | viability, T/C [42] 1.29% | viability, T/C [21] 3.08% | viability, T/C [22] 2.84% | viability, T/C [23] 2.3% | viability, T/C [24] 1.95% | viability, T/C [43] 0.99% | viability, T/C [44] 0.77% | viability, T/C [27] 2.64% | viability, T/C [28] 2.19% | viability, T/C [29] 2.43% | viability, T/C [30] 1.31% | viability, T/C [45] 1.13% | viability, T/C [46] 0.37% | viability, T/C [33] 1.88% | viability, T/C [34] 2.14% | viability, T/C [35] 2.14% | viability, T/C [36] 0.97% | viability, T/C [47] 0.62% | viability, T/C [48] 0.36%

CC(Nc1ccc2c(c1)OCCn1cc(N3C(=O)OCC3C(F)F)nc1-2)C(N)=O (stereo not drawn) + CCn1c(-c2cc(N3CCN(C)CC3)cnc2C(C)OC)c2c3cc(ccc31)-c1csc(n1)CC(NC(=O)C1CC1C)C(=O)N1CCCC(N1)C(=O)OCC(C)(C)C2
inactive: viability, T/C [3] 64.5% | viability, T/C [4] 49.2% | viability, T/C [5] 39.7% | viability, T/C [6] 38.6% | viability, T/C [37] 29.7% | viability, T/C [38] 19.4% | viability, T/C [9] 26.1% | viability, T/C [10] 19.6% | viability, T/C [11] 15.7% | viability, T/C [12] 11.4%
> 7.50: pIC50 (second compound 0.003 µM) | pIC50 (second compound 0.00949 µM) | pIC50 (second compound 0.03 µM) | pIC50 (second compound 0.0949 µM) | pIC50 (second compound 0.3 µM)
6.89: pIC50 (second compound 0.000949 µM)
active: viability, T/C [39] 9.07% | viability, T/C [40] 7.98% | viability, T/C [15] 2.72% | viability, T/C [16] 1.99% | viability, T/C [17] 1.32% | viability, T/C [18] 1.55% | viability, T/C [41] 0.87% | viability, T/C [42] 0.68% | viability, T/C [21] 2.18% | viability, T/C [22] 1.47% | viability, T/C [23] 0.93% | viability, T/C [24] 0.68% | viability, T/C [43] 0.45% | viability, T/C [44] 0.32% | viability, T/C [27] 1.46% | viability, T/C [28] 1.18% | viability, T/C [29] 0.72% | viability, T/C [30] 0.45% | viability, T/C [45] 0.31% | viability, T/C [46] 0.62% | viability, T/C [33] 1.36% | viability, T/C [34] 0.73% | viability, T/C [35] 0.51% | viability, T/C [36] 0.35% | viability, T/C [47] 0.22% | viability, T/C [48] 0.52%

O=C(c1ccc(F)c(F)c1Nc1ccc(I)cc1F)N1CC(O)([C@@H]2CCCCN2)C1 + CCn1c(-c2cc(N3CCN(C)CC3)cnc2C(C)OC)c2c3cc(ccc31)-c1csc(n1)CC(NC(=O)C1CC1C)C(=O)N1CCCC(N1)C(=O)OCC(C)(C)C2
inactive: viability, T/C [1] 39.5% | viability, T/C [2] 11.1% | viability, T/C [7] 13.7%
active: viability, T/C [3] 2.22% | viability, T/C [4] 1.79% | viability, T/C [5] 0.22% | viability, T/C [6] 0.2% | viability, T/C [8] 2.9% | viability, T/C [9] 2.47% | viability, T/C [10] 1.41% | viability, T/C [11] 0.18% | viability, T/C [12] 0.12% | viability, T/C [13] 3.2% | viability, T/C [14] 2.49% | viability, T/C [15] 1.79% | viability, T/C [16] 0.56% | viability, T/C [17] 0.06% | viability, T/C [18] 0.13% | viability, T/C [19] 2.9% | viability, T/C [20] 2.26% | viability, T/C [21] 1.17% | viability, T/C [22] 0.14% | viability, T/C [23] 0.07% | viability, T/C [24] 0.11% | viability, T/C [25] 1.79% | viability, T/C [26] 1.48% | viability, T/C [27] 0.57% | viability, T/C [28] 0.07% | viability, T/C [29] 0.1% | viability, T/C [30] 0.13% | viability, T/C [31] 1.39% | viability, T/C [32] 1.61% | viability, T/C [33] 0.46% | viability, T/C [34] 0.12% | viability, T/C [35] 0.17% | viability, T/C [36] 0.17%
> 8.50: pIC50 (second compound 0.000949 µM) | pIC50 (second compound 0.003 µM) | pIC50 (second compound 0.00949 µM) | pIC50 (second compound 0.03 µM) | pIC50 (second compound 0.0949 µM) | pIC50 (second compound 0.3 µM)
